# Laboratory results published in ChEMBL document CHEMBL4706476, “Novel Tetrahydropyrido[4,3-d]pyrimidines as Potent Inhibitors of Chaperone Heat Shock Protein 90” (J Med Chem, 2016).
# Target: T1, Heat shock protein HSP90 (Homo sapiens) (UniProt P07900+P08238)
# Experiment: Inhibition of HSP90 in human HCT-116 cells assessed as reduction in Erk protein expression after 24 hrs by Western blot analysis
# Type: cell-based
# Conditions: dose 0.01-3 µM
row,SMILES,inhibition
1,CCCOc1nc(OCCOC)nc2c1CN(C(=O)c1cc(C(C)C)c(O)cc1O)CC2,Dose-dependent effect

# Test system: MKN-28
# Experiment: Antiproliferative activity against human MKN-28 assessed as reduction in cell viability incubated for 72 hrs by MTT assay
# Type: functional, cell-based
# Conditions: MKN-28, 72 h
row,SMILES,IC50
1,CC(C)c1cc(C(=O)N2Cc3ccc(CN4CCN(C)CC4)cc3C2)c(O)cc1O [ONALESPIB],129 nM
2,CCCOc1nc(OCCOC)nc2c1CN(C(=O)c1cc(C(C)C)c(O)cc1O)CC2,407 nM

# Test system: A549
# Experiment: Antiproliferative activity against human A549 assessed as reduction in cell viability incubated for 72 hrs by MTT assay
# Type: functional, cell-based
# Conditions: A549, 72 h
row,SMILES,IC50
1,CC(C)c1cc(C(=O)N2Cc3ccc(CN4CCN(C)CC4)cc3C2)c(O)cc1O [ONALESPIB],50 nM
2,CCCOc1nc(OCCOC)nc2c1CN(C(=O)c1cc(C(C)C)c(O)cc1O)CC2,60 nM

# Test system: MV4-11
# Experiment: Antiproliferative activity against human MV4-11 assessed as reduction in cell viability incubated for 72 hrs by MTT assay
# Type: functional, cell-based
# Conditions: MV4-11, 72 h
row,SMILES,IC50
1,CC(C)c1cc(C(=O)N2Cc3ccc(CN4CCN(C)CC4)cc3C2)c(O)cc1O [ONALESPIB],11 nM
2,CCCOc1nc(OCCOC)nc2c1CN(C(=O)c1cc(C(C)C)c(O)cc1O)CC2,18 nM

# Test system: MCF7
# Experiment: cells
# Conditions: Homo sapiens, MCF7, 72 h
row,SMILES,IC50
1,CC(C)c1cc(C(=O)N2Cc3ccc(CN4CCN(C)CC4)cc3C2)c(O)cc1O [ONALESPIB],20 nM
2,CCCOc1nc(OCCOC)nc2c1CN(C(=O)c1cc(C(C)C)c(O)cc1O)CC2,40 nM

# Target: Heat shock protein HSP 90-alpha (Homo sapiens, UniProt P07900)
# Experiment: Displacement of FITC-geldanamycin from N-terminal HSP90alpha (unknown origin) after 30 mins by fluorescence polarization competitive binding assay
# Conditions: not given
row,SMILES,IC50
1,CC(C)c1cc(C(=O)N2Cc3ccc(CN4CCN(C)CC4)cc3C2)c(O)cc1O [ONALESPIB],13 nM
2,CCCOc1nc(OCCOC)nc2c1CN(C(=O)c1cc(C(C)C)c(O)cc1O)CC2,36 nM

# Test system: not listed separately
# Experiment: Distribution coefficient, logD of compound at pH 7.4
# Type: physicochemical
# Conditions: octanol/water
row,SMILES,logD
1,CCCOc1nc(OCCOC)nc2c1CN(C(=O)c1cc(C(C)C)c(O)cc1O)CC2,3.59

# Target: T1, Heat shock protein HSP90 (Homo sapiens)
# Experiment: Inhibition of HSP90 in human HCT-116 cells assessed as reduction in AKT protein expression after 24 hrs by Western blot analysis
# Type: cell-based
# Conditions: dose 0.01-3 µM
row,SMILES,inhibition
1,CCCOc1nc(OCCOC)nc2c1CN(C(=O)c1cc(C(C)C)c(O)cc1O)CC2,Dose-dependent effect

# Test system: not listed separately
# Experiment: Selectivity ratio of IC50 for inhibition of FITC-geldanamycin binding to N-terminal GRP94 (unknown origin) to IC50 for inhibition of FITC-geldanamycin binding to N-terminal HSP90alpha (unknown origin)
# Conditions: not given
row,SMILES,Ratio IC50
1,CC(C)c1cc(C(=O)N2Cc3ccc(CN4CCN(C)CC4)cc3C2)c(O)cc1O [ONALESPIB],1.7
2,CCCOc1nc(OCCOC)nc2c1CN(C(=O)c1cc(C(C)C)c(O)cc1O)CC2,25.8

# Target: T1, Heat shock protein HSP90 (Homo sapiens)
# Experiment: Inhibition of HSP90 in human HCT-116 cells assessed as reduction in phosphorylated Erk after 24 hrs by Western blot analysis
# Type: cell-based
# Conditions: dose 0.01-3 µM
row,SMILES,inhibition
1,CCCOc1nc(OCCOC)nc2c1CN(C(=O)c1cc(C(C)C)c(O)cc1O)CC2,Dose-dependent effect

# Test system: not listed separately
# Experiment: Metabolic stability in human liver microsomes assessed as parent compound remaining at 1 uM preincubated for 5 mins followed by NADPH addition and measured up to 120 mins by LC-MS/MS analysis
# Type: ADME, Microsome
# Conditions: 2 h, time <=125 min
row,SMILES,Stabilty
1,CCCOc1nc(OCCOC)nc2c1CN(C(=O)c1cc(C(C)C)c(O)cc1O)CC2,59.5%

# Test system: HCT-116
# Experiment: Antitumor activity against human HCT-116 cells xenografted in nude mouse assessed as reduction in relative tumor volume by measuring T/C ratio at 60 mg/kg, ip administered every other day for 16 days and monitored every 3 days
# Type: functional
# Conditions: time 16 day
row,SMILES,T/C
1,CC(C)c1cc(C(=O)N2Cc3ccc(CN4CCN(C)CC4)cc3C2)c(O)cc1O [ONALESPIB],21%

# Test system: SK-BR-3
# Experiment: Antiproliferative activity against human SK-BR-3 assessed as reduction in cell viability incubated for 72 hrs by MTT assay
# Type: functional, cell-based
# Conditions: SK-BR-3, 72 h
row,SMILES,IC50
1,CC(C)c1cc(C(=O)N2Cc3ccc(CN4CCN(C)CC4)cc3C2)c(O)cc1O [ONALESPIB],71 nM
2,CCCOc1nc(OCCOC)nc2c1CN(C(=O)c1cc(C(C)C)c(O)cc1O)CC2,220 nM

# Test system: HCT-116
# Experiment: cells
# Conditions: Homo sapiens, HCT-116, 72 h
# Description: Antiproliferative activity against human HCT-116 cells assessed as reduction in cell viability incubated for 72 hrs by MTT assay
row,SMILES,IC50
1,CC(C)c1cc(C(=O)N2Cc3ccc(CN4CCN(C)CC4)cc3C2)c(O)cc1O [ONALESPIB],70 nM
2,CCCOc1nc(OCCOC)nc2c1CN(C(=O)c1cc(C(C)C)c(O)cc1O)CC2,120 nM

# Test system: MDA-MB-231
# Experiment: Antiproliferative activity against human MDA-MB-231 assessed as reduction in cell viability incubated for 72 hrs by MTT assay
# Type: functional, cell-based
# Conditions: MDA-MB-231, 72 h
row,SMILES,IC50
1,CC(C)c1cc(C(=O)N2Cc3ccc(CN4CCN(C)CC4)cc3C2)c(O)cc1O [ONALESPIB],38 nM
2,CCCOc1nc(OCCOC)nc2c1CN(C(=O)c1cc(C(C)C)c(O)cc1O)CC2,122 nM

# Target: T1, Heat shock protein HSP90 (Homo sapiens)
# Experiment: Inhibition of HSP90 in human HCT-116 cells assessed as induction of HSP70 expression after 24 hrs by Western blot analysis
# Type: cell-based
# Conditions: dose 0.01-3 µM
row,SMILES,inhibition
1,CCCOc1nc(OCCOC)nc2c1CN(C(=O)c1cc(C(C)C)c(O)cc1O)CC2,Dose-dependent effect

# Test system: K562
# Experiment: Antiproliferative activity against human K562 assessed as reduction in cell viability incubated for 72 hrs by MTT assay
# Type: functional, cell-based
# Conditions: K562, 72 h
row,SMILES,IC50
1,CC(C)c1cc(C(=O)N2Cc3ccc(CN4CCN(C)CC4)cc3C2)c(O)cc1O [ONALESPIB],38 nM
2,CCCOc1nc(OCCOC)nc2c1CN(C(=O)c1cc(C(C)C)c(O)cc1O)CC2,150 nM

# Test system: not listed separately
# Experiment: Intrinsic aqueous solubility of the compound
# Type: physicochemical
# Conditions: not given
row,SMILES,solubility
1,CCCOc1nc(OCCOC)nc2c1CN(C(=O)c1cc(C(C)C)c(O)cc1O)CC2,73.6 µg/mL

# Test system: not listed separately
# Experiment: Permeability of the compound at pH 7.4 by PAMPA
# Type: ADME
# Conditions: read-out: permeability
row,SMILES,Papp
1,CC(C)c1cc(C(=O)N2Cc3ccc(CN4CCN(C)CC4)cc3C2)c(O)cc1O [ONALESPIB],74.3 ×10⁻⁶ cm/s
2,CCCOc1nc(OCCOC)nc2c1CN(C(=O)c1cc(C(C)C)c(O)cc1O)CC2,87.7 ×10⁻⁶ cm/s

# Target: Endoplasmin (Homo sapiens, UniProt P14625)
# Sequence (P14625 whole entry): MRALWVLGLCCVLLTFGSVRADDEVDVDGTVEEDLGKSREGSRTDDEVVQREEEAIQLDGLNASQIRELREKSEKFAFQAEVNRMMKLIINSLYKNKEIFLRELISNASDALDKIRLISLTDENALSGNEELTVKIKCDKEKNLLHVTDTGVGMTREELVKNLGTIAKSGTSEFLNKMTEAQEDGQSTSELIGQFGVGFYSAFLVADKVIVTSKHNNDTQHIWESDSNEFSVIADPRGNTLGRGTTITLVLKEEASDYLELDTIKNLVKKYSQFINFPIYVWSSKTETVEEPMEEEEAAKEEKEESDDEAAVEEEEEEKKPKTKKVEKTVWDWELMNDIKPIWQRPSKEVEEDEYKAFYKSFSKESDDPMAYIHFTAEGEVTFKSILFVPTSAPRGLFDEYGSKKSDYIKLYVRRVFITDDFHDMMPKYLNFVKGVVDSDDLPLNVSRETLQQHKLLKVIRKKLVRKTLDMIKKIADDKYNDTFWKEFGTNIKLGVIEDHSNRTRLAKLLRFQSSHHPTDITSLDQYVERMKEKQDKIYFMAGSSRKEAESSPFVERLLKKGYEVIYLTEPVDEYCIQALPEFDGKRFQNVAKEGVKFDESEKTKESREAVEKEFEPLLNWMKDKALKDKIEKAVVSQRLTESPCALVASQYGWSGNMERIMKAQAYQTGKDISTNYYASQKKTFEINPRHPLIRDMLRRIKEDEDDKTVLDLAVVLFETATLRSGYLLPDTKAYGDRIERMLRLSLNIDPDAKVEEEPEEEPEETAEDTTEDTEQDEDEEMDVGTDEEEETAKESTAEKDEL
# Experiment: Displacement of FITC-geldanamycin from N-terminal GRP94 (unknown origin) after 30 mins by fluorescence polarization competitive binding assay
# Conditions: not given
row,SMILES,IC50
1,CC(C)c1cc(C(=O)N2Cc3ccc(CN4CCN(C)CC4)cc3C2)c(O)cc1O [ONALESPIB],22 nM
2,CCCOc1nc(OCCOC)nc2c1CN(C(=O)c1cc(C(C)C)c(O)cc1O)CC2,929 nM

# Test system: BT-474
# Experiment: Antiproliferative activity against human BT-474 assessed as reduction in cell viability incubated for 72 hrs by MTT assay
# Type: functional, cell-based
# Conditions: BT-474, 72 h
row,SMILES,IC50
1,CC(C)c1cc(C(=O)N2Cc3ccc(CN4CCN(C)CC4)cc3C2)c(O)cc1O [ONALESPIB],32 nM
2,CCCOc1nc(OCCOC)nc2c1CN(C(=O)c1cc(C(C)C)c(O)cc1O)CC2,118 nM

# Test system: not listed separately
# Experiment: Half life in human liver microsomes at 1 uM preincubated for 5 mins followed by NADPH addition and measured up to 120 mins by LC-MS/MS analysis
# Type: ADME, Microsome
# Conditions: 2 h, time <=125 min
row,SMILES,t1/2
1,CCCOc1nc(OCCOC)nc2c1CN(C(=O)c1cc(C(C)C)c(O)cc1O)CC2,1.15 h

# Test system: HepG2
# Experiment: Antiproliferative activity against human HepG2 assessed as reduction in cell viability incubated for 72 hrs by MTT assay
# Type: functional, cell-based
# Conditions: HepG2, 72 h
row,SMILES,IC50
1,CC(C)c1cc(C(=O)N2Cc3ccc(CN4CCN(C)CC4)cc3C2)c(O)cc1O [ONALESPIB],18 nM
2,CCCOc1nc(OCCOC)nc2c1CN(C(=O)c1cc(C(C)C)c(O)cc1O)CC2,222 nM

# Test system: L02
# Experiment: Cytotoxicity against human L02 cells assessed as reduction in cell viability incubated for 72 hrs by MTT assay
# Type: cell-based
# Conditions: L02, 72 h
row,SMILES,IC50
1,CC(C)c1cc(C(=O)N2Cc3ccc(CN4CCN(C)CC4)cc3C2)c(O)cc1O [ONALESPIB],11600 nM
2,CCCOc1nc(OCCOC)nc2c1CN(C(=O)c1cc(C(C)C)c(O)cc1O)CC2,30900 nM

# Test system: T47D
# Experiment: Antiproliferative activity against human T47D assessed as reduction in cell viability incubated for 72 hrs by MTT assay
# Type: functional, cell-based
# Conditions: not given
row,SMILES,IC50
1,CC(C)c1cc(C(=O)N2Cc3ccc(CN4CCN(C)CC4)cc3C2)c(O)cc1O [ONALESPIB],24 nM
2,CCCOc1nc(OCCOC)nc2c1CN(C(=O)c1cc(C(C)C)c(O)cc1O)CC2,178 nM

# Test system: not listed separately
# Experiment: Intrinsic clearance in human liver microsomes at 1 uM preincubated for 5 mins followed by NADPH addition and measured up to 120 mins by LC-MS/MS analysis
# Type: ADME, Microsome
# Conditions: 2 h, time <=125 min
row,SMILES,CLint
1,CCCOc1nc(OCCOC)nc2c1CN(C(=O)c1cc(C(C)C)c(O)cc1O)CC2,13.7 mL/min/kg

# Test system: MDA-MB-468
# Experiment: Antiproliferative activity against human MDA-MB-468 assessed as reduction in cell viability incubated for 72 hrs by MTT assay
# Type: functional, cell-based
# Conditions: MDA-MB-468, 72 h
row,SMILES,IC50
1,CC(C)c1cc(C(=O)N2Cc3ccc(CN4CCN(C)CC4)cc3C2)c(O)cc1O [ONALESPIB],66 nM
2,CCCOc1nc(OCCOC)nc2c1CN(C(=O)c1cc(C(C)C)c(O)cc1O)CC2,139 nM

# Test system: U2OS
# Experiment: Antiproliferative activity against human U2OS assessed as reduction in cell viability incubated for 72 hrs by MTT assay
# Type: functional, cell-based
# Conditions: not given
row,SMILES,IC50
1,CC(C)c1cc(C(=O)N2Cc3ccc(CN4CCN(C)CC4)cc3C2)c(O)cc1O [ONALESPIB],67 nM
2,CCCOc1nc(OCCOC)nc2c1CN(C(=O)c1cc(C(C)C)c(O)cc1O)CC2,171 nM
